Source: ChEMBL document CHEMBL1156061, “Design and synthesis of substituted nicotinamides as inhibitors of soluble epoxide hydrolase” (Bioorg Med Chem Lett, 2009)

Columns and labels:
[1] = biological target: T1, Bifunctional epoxide hydrolase 2 (Homo sapiens, UniProt P34913); assay: Inhibition of human soluble EH
T1 sequence (P34913 whole entry): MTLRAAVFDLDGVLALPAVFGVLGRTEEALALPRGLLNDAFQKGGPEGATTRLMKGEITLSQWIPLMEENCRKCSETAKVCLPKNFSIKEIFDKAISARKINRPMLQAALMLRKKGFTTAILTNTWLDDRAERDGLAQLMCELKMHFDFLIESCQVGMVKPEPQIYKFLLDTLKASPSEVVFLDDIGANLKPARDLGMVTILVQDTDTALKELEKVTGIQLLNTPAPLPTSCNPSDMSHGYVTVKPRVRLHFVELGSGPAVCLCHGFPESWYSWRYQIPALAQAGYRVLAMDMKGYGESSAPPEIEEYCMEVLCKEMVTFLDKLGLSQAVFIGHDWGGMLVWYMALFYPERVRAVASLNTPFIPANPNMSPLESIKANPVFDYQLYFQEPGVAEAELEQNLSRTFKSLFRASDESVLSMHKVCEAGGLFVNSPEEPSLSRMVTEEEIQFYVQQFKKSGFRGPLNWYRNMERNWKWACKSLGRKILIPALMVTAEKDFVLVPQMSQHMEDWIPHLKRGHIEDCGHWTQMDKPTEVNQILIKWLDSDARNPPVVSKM

[2] = biological target: T2, Bifunctional epoxide hydrolase 2 (Rattus norvegicus, UniProt P80299); assay: Inhibition of rat sEH
T2 sequence (P80299 whole entry): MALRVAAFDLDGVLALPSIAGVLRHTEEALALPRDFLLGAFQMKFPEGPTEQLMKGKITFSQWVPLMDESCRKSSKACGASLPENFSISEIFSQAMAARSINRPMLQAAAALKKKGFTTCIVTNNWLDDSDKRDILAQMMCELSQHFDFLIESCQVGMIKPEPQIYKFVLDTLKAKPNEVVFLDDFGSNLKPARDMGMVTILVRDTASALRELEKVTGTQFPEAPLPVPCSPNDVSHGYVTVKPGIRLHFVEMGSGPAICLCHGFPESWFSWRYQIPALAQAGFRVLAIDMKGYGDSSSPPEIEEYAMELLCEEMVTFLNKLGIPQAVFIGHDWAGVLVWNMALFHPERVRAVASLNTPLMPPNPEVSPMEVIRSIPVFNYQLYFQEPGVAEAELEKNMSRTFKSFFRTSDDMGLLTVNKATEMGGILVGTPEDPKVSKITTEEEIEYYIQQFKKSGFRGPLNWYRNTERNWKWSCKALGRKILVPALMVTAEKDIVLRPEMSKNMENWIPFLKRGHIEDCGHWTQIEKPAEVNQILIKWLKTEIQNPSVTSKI

[3] = Metabolic stability in rat liver microsomes assessed as half life; assay type: ADME, Microsome
[4] = Metabolic stability in human liver microsomes assessed as half life; assay type: ADME, Microsome
[5] = biological target: T1, Bifunctional epoxide hydrolase 2; assay: Inhibition of soluble EH in human HepG2 cells by cellular assay; assay type: cell-based
[6] = Plasma concentration in Sprague-Dawley rat at 5 mg/kg, po after 1 hr; assay type: ADME, organism-based; set-up: dose 5 mg/kg, route oral

Compound | IC50 [1] | IC50 [2] | half-life [3] | half-life [4] | IC50 [5] | concentration at 1 h [6]
CS(=O)(=O)c1ccc(CNC(=O)c2ccc(OCC(F)(F)F)nc2)c(Cl)c1 | 0.015 µM | 0.016 µM | 1.25 h | 1.6 h | 0.028 µM | 
N#Cc1ccc(CNC(=O)c2ccc(OCC(F)(F)F)nc2)c(Cl)c1 | 0.014 µM |  | 1.75 h | 3.13 h | 0.012 µM | 
O=C(NCCC(c1ccccc1)c1ccccc1)c1ccc(OCC(F)(F)F)nc1 | 0.0054 µM | 0.0078 µM | < 0.05 h | 0.633 h |  | 
CS(=O)(=O)c1ccc(-c2ccc(CNC(=O)c3ccc(OCCC(F)(F)F)nc3)cc2)cc1 | 0.012 µM | 0.0043 µM |  |  | 0.024 µM | 
O=C(NCc1ccc(Cl)cc1)c1ccc(OCCC(F)(F)F)nc1 |  | 0.007 µM |  |  |  | 
CS(=O)(=O)c1cc(Cl)ccc1CNC(=O)c1ccc(OCC(F)(F)F)nc1 |  | 0.011 µM | 1.65 h | 5 h |  | 
CCOCCn1cc(C(=O)NCCC(c2ccccc2)c2ccccc2)ccc1=O |  | 0.004 µM | 0.0833 h | 0.0667 h |  | 
O=C(NCc1ccc(Cl)cc1Cl)c1ccc(OCC(F)(F)F)nc1 | 0.0066 µM | 0.0073 µM | 0.117 h | 2.97 h | 0.018 µM | 2500 nM
CS(=O)(=O)c1ccc(CNC(=O)c2ccc(OCCC(F)(F)F)nc2)cc1 | 0.11 µM | 0.025 µM | 2.88 h | 2.6 h |  | 
O=C(NCc1ccc(Br)cc1OC(F)(F)F)c1ccc(OCC(F)(F)F)nc1 | 0.012 µM | 0.007 µM | 0.283 h | 5 h | 0.0001 µM | 
O=C(NCc1ccccc1)c1ccc(OCCC(F)(F)F)nc1 | 1.2 µM |  |  |  |  | 
CNS(=O)(=O)c1ccc(CNC(=O)c2ccc(OCC(F)(F)F)nc2)c(Cl)c1 | 0.014 µM | 0.019 µM | 0.417 h | 1.35 h | 0.031 µM | 
CCOCCn1cc(C(=O)NCc2ccc(Cl)cc2Cl)ccc1=O | 0.016 µM | 0.006 µM | 0.317 h | 0.4 h |  | 
CS(=O)(=O)c1ccccc1CNC(=O)c1ccc(OCCC(F)(F)F)nc1 | 0.27 µM |  |  |  |  | 
O=C(NCc1ccc(Cl)cc1Cl)c1ccc(=O)[nH]c1 | 0.4 µM | 0.33 µM | 3.18 h | 1.3 h |  | 

Results, then the molecule that gave them:

IC50 [1] | IC50 [2] | half-life [3] | half-life [4] | IC50 [5] | concentration at 1 h [6] | Compound
 | 0.43 µM | 0.733 h | 0.767 h |  |  | Nc1ccc(C(=O)NCc2ccc(Cl)cc2Cl)cn1
 | 0.0085 µM | 0.0833 h | 0.55 h |  |  | Nc1ccc(C(=O)NCCC(c2ccccc2)c2ccccc2)cn1
 |  | 1.73 h | 5 h |  |  | O=C(NC1CCOCC1)C1CCN(C(=O)NCc2ccc(Cl)cc2Cl)CC1
0.0081 µM | 0.01 µM | 0.117 h | 1.6 h |  |  | O=C(NCCC(c1ccccc1)c1ccccc1)c1ccc(=O)[nH]c1
0.018 µM | 0.009 µM | 0.683 h | 0.767 h |  |  | O=C(NCCC(c1ccccc1)c1ccccc1)c1ccc(CCN2CCCC2)nc1
1.5 µM |  |  |  |  |  | O=C(NCc1ccc(Cl)cc1Cl)c1ccc(CCN2CCCC2)nc1
 | 0.006 µM | 0.117 h | 1.3 h |  |  | O=C(NCc1ccccc1OC(F)(F)F)c1ccc(OCC(F)(F)F)nc1
